“And” between values parts separate entries of the source, which are not always exact repeats. Equal values may be shown once.
Columns and labels:
[1] = tested on: RPE-1 GFP-LC3B-RPF-LC3∆G reporter cell line; assay: Autophagy flux assay; assay type: cell-based; details: rebuttal letter
Excerpt: LC3/GABARAP in vitro, but no attempts are made to replicate the previously reported cellular activity of these compounds. It would be beneficial to know whether these compounds have any effect on autophagy in the authors’ hands, and therefore could act by alternative mechanisms, or whether they […]
Response: We were very concerned that the ligands used for ATTEC development might induce general toxicity in cell lines, as they are based on drugs used in oncology (such as the kinesin inhibitor 10O5) and the isoxazole scaffold often used in the development of multi-targeted kinase inhibitors. However, we have now investigated compounds 1-4 in autophagy flux assays using the RPE-1 GFP-LC3B-RPF-LC3∆G reporter cell line (single clone) as […]
reported in [PMID:37558952].
(RR_Figure 6). The authors of the first manuscript reporting these ligands [PMID: 31666698]
However, due to the potent activity of 8F20 on KIF11, which will have profound effects on cell trafficking and growth, and DCAF11 (AN1, [PMID: 38036533]), we find it unlikely that the effects on autophagy are due to LC3/GABARAP modulation. Due to the lack of target (LC3/GABARAP) binding in vitro and the […]
of this review but have excluded the data in the manuscript.
RR_figure 5: Autophagy flux measurement for 10O5 and AN2. No induction of autophagy or effects (right panels, assessed by Incucyte (Sartorius) life cell imaging) on cell growth was […]
RR_figure 6: Autophagy flux measurement for 8F20 and AN1 show changes in autophagy flux […]
It is not clear how many biological replicates have been performed. For example, the figure legends […]

[2] = tested on: U2OS cells; assay: Cell growth assay (IncuCyte confluence over 72 h); assay type: cell-based; set-up: key to U2OS cell growth: % of well area covered by cells (confluence); details: listed as AN1
Description: Cell growth assay: Cell confluence (phase) from RPE1 (hTERT RPE-1, ATCC CLR_4000) or U2OS (ATCC, HTB-96) cell lines were monitored over time with the IncuCyte S3 (Sartiorius, Germany) in 384-well plates in 50 ul DMEM media, supplemented with 10% Fetal Bovine Serum (FBS) 1% penicillin/Streptomycin and incubated 24 h before treatment. Experiment was performed as described in Cano-Franco et al.. […] Cell confluence is represented as % of area covered by cells. Each data point represents the average ratio or confluence obtained from three individual wells of the plate.

## O=C1Nc2ccc(Br)cc2C1=Cc1cc(O)c(O)c(Br)c1 [compound 1]
[1]
  autophagy induction (autophagy flux): significant autophagy activation
  effects on cell growth (Incucyte life cell imaging): profound effects on cell growth
[2]; 100 nM, time 12 h
  U2OS cell growth: 35.4537 and 32.3571 and 35.5968
[2]; 100 nM, time 14 h
  U2OS cell growth: 36.0873 and 39.0366 and 39.8543
[2]; 100 nM, time 16 h
  U2OS cell growth: 40.1608 and 39.3939 and 40.4478
[2]; 100 nM, time 18 h
  U2OS cell growth: 39.1099 and 37.1872 and 41.4362
[2]; 100 nM, time 20 h
  U2OS cell growth: 43.7035 and 39.6959 and 46.4166
[2]; 500 nM, time 10 h
  U2OS cell growth: 38.9338 and 41.9757 and 41.002
[2]; 500 nM, time 12 h
  U2OS cell growth: 39.0148 and 42.3639 and 41.6671
[2]; 500 nM, time 14 h
  U2OS cell growth: 46.8116 and 46.7871 and 49.5823
[2]; 500 nM, time 16 h
  U2OS cell growth: 47.3468 and 53.1118 and 48.7734
[2]; 500 nM, time 18 h
  U2OS cell growth: 38.8125 and 47.7715 and 46.4243
[2]; 1 uM, time 10 h
  U2OS cell growth: 48.4994 and 57.2399 and 59.5515
[2]; 1 uM, time 12 h
  U2OS cell growth: 47.4737 and 55.8868 and 54.1029
[2]; 1 uM, time 14 h
  U2OS cell growth: 46.9999 and 57.1898 and 59.5195
[2]; 1 uM, time 16 h
  U2OS cell growth: 54.858 and 68.5371 and 64.7822
[2]; 1 uM, time 18 h
  U2OS cell growth: 48.8637 and 59.8627 and 56.3987
[2]; 1 uM, time 20 h
  U2OS cell growth: 55.1556
[2]; 3 uM, time 10 h
  U2OS cell growth: 50.7422 and 64.1291 and 54.5819
[2]; 3 uM, time 12 h
  U2OS cell growth: 47.9181 and 60.7394 and 55.125
[2]; 3 uM, time 14 h
  U2OS cell growth: 49.0342 and 60.5893 and 56.0885
[2]; 3 uM, time 16 h
  U2OS cell growth: 57.6695 and 67.0321 and 61.6341
[2]; 3 uM, time 18 h
  U2OS cell growth: 48.0442 and 62.2285 and 59.0264
[2]; 3 uM, time 20 h
  U2OS cell growth: 51.1291 and 66.3122 and 66.4452
[2]; 5 uM, time 10 h
  U2OS cell growth: 55.0487 and 54.3842 and 51.4536
[2]; 5 uM, time 12 h
  U2OS cell growth: 54.96 and 58.942 and 53.816
[2]; 5 uM, time 14 h
  U2OS cell growth: 49.0714 and 54.2863 and 67.0438
[2]; 5 uM, time 16 h
  U2OS cell growth: 60.7907 and 61.6888 and 65.4648
[2]; 5 uM, time 18 h
  U2OS cell growth: 57.5124 and 66.5017 and 59.7417
[2]; 5 uM, time 20 h
  U2OS cell growth: 63.2102 and 60.2689 and 68.651
[2]; 10 uM, time 10 h
  U2OS cell growth: 59.7697 and 44.8684 and 48.7466
[2]; 10 uM, time 12 h
  U2OS cell growth: 61.5092 and 47.1657 and 52.5139
[2]; 10 uM, time 14 h
  U2OS cell growth: 62.1617 and 46.5884 and 50.2783
[2]; 10 uM, time 16 h
  U2OS cell growth: 65.2687 and 51.6571 and 54.5952
[2]; 10 uM, time 18 h
  U2OS cell growth: 66.9364 and 52.1914 and 55.4238
[2]; 10 uM, time 20 h
  U2OS cell growth: 65.8459 and 51.6884 and 56.9826

From publication PMC11589570, “Critical assessment of LC3/GABARAP ligands used for degrader development and ligandability of LC3/GABARAP binding pockets” (Nature Communications, 2024)
